In patent US8110703B2, “Retinoid derivative and pharmaceutical composition and use thereof” (Anhui Medical University, priority 2008, dated 2012):
Several values for one entry are separate records, joined by “and”; a condition that tells them apart may be missing. Equal entries are not always repeated. Marks after values point to notes of the source that are not given here.

What was measured:
Assay type in all cases: cell-based
[1] = system: A549 lung cancer cells; assay: MTT cell growth and proliferation experiment, A549; parameters: key to Inhibition Rate: (control OD570 − test OD570)/control OD570, as fraction
In short: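 Cells in DMEM/10% calf serum were treated with retinoic acid derivatives at 1, 5 and 10 ug/ml (DMSO <0.1%) for 3 d, then with MTT for 4 h at 37° C. Read-out was OD570 after DMSO solubilisation, giving % growth inhibition versus control wells. A time-course at 10 umol/L ran for 1, 2, 3 and 7 days.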

[2] = system: liver cancer HepG2 cells; assay: MTT cell growth and proliferation experiment, HepG2; parameters: key to Inhibition Rate: (control OD570 − test OD570)/control OD570, as fraction; conditions: for Inhibition Rate: fraction
In short: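 After treatment, 20 ul/well of MTT (5 g/L) was added for 4 h at 37° C. The medium was then removed and 20 ul/well DMSO added to dissolve the crystals. Plates were shaken 10 min and read at 570 nm. Inhibition rate was (control OD570 − experimental OD570)/control OD570 × 100%, averaged over three experiments.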

[3] = system: A549 cells; assay: Differentiation index: CEA secretory volume of A549 cells; conditions: A549 culture supernatant, 10 ug/ml, 3 d, DMSO
In short: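 Cells exposed 3 days to compounds at 10 μg/ml, alongside untreated, DMSO/ethanol solvent and 10 μg/ml fenretinide controls. Culture supernatant taken after centrifugation; CEA content measured by kit using enzyme kinetics.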

[4] = system: HepG2 cells; assay: AFP secretory volume of HepG2 cells; conditions: HepG2 cells, DMSO
[5] = system: HepG2 cells; assay: γ-GT specific activity of HepG2 cells; conditions: DMSO
[6] = system: HepG2 cells; assay: Cell cycle and apoptosis by flow cytometry, HepG2; conditions: HepG2, flow cytometry
[7] = system: NB4 cells; assay: Cell cycle analysis by flow cytometer, NB4; parameters: S %: dose or concentration left out as unconfirmed; conditions: 72 h
In short: (§1)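 NB4 and K562 cells in RPMI1640 with 10% FBS were exposed to compounds […] for 72 h. Then they were fixed in 70% cold ethanol and stained with 5 ug/ml propidium iodide for cell-cycle profiling by flow cytometry.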

[8] = system: K562 cells; assay: Cell cycle analysis by flow cytometer, K562; parameters: S %: dose or concentration left out as unconfirmed; conditions: 72 h
In short: as §1

[9] = HepG2, MTT time gradient, 10 ug/ml, 1 d
[10] = HepG2, MTT time gradient, 10 ug/ml, 2 d
[11] = HepG2, MTT time gradient, 10 ug/ml, 3 d
[12] = HepG2, MTT time gradient, 10 ug/ml, 7 d
[13] = HepG2, Table 5 repeat MTT, 10 ug/ml, 3 days, DMSO

In the case of `CC1=C(/C=C/C(C)=C/C=C/C(C)=C/C(=O)Nc2cccc(OC(F)(F)F)c2)C(C)(C)CCC1` [Example 6a-02, (3-trifluoromethoxyphenyl)-(all-trans)-3,7-dimethyl-9-(2,6,6-trimethyl-1-cyclohexen-1-yl)-2,4,6,8-nonatetraenoic acid amide], the “OD Value (x ± s)” value ([1]; A549, MTT OD 570 nm, 1 ug/ml, 3 d, solvent DMSO (D)) is reported as 1.637 ± 0.146 and 1.614 ± 0.146, the “OD Value (x ± s)” value ([1]; A549, MTT OD 570 nm, 5 ug/ml, 3 d, solvent DMSO (D)) is reported as 1.613 ± 0.120 and 1.580 ± 0.096 and the “OD Value (x ± s)” value ([1]; A549, MTT OD 570 nm, 10 ug/ml, 3 d, solvent DMSO (D)) is reported as 1.362 ± 0.077 and 1.498 ± 0.218. For the same compound, the “OD Value (x ± s)” value ([1]; A549, MTT time gradient, 10 ug/ml, 1 d) was 0.774 ± 0.030, the “Inhibition Rate” value ([1]; A549, MTT time gradient, 10 ug/ml, 1 d, fraction) was 0.156 and the “OD Value (x ± s)” value ([1]; A549, MTT time gradient, 10 ug/ml, 2 d) was 1.065 ± 0.045. The “Inhibition Rate” value ([1]; A549, MTT time gradient, 10 ug/ml, 2 d, fraction) was 0.272, the “OD Value (x ± s)” value ([1]; A549, MTT time gradient, 10 ug/ml, 3 d) was 0.408 ± 0.028 and the “Inhibition Rate” value ([1]; A549, MTT time gradient, 10 ug/ml, 3 d, fraction) was 0.561. For the same compound, the “OD Value (x ± s)” value ([1]; A549, MTT time gradient, 10 ug/ml, 7 d) was 0.666 ± 0.049, the “Inhibition Rate” value ([1]; A549, MTT time gradient, 10 ug/ml, 7 d, fraction) was 0.679 and the “Inhibition Rate” value ([1]; A549, MTT, 1 ug/ml, 3 d, solvent DMSO (D), given as fraction) was 0.123 and 0.135. For the same compound, the “Inhibition Rate” value ([1]; A549, MTT, 5 ug/ml, 3 d, solvent DMSO (D), given as fraction) was 0.136 and 0.154, the “Inhibition Rate” value ([1]; A549, MTT, 10 ug/ml, 3 d, solvent DMSO (D), given as fraction) was 0.270 and 0.197 and the “OD Value (x ± s)” value ([2]; HepG2, MTT OD 570 nm, 1 ug/ml, 3 d, solvent not given) was 1.38 ± 0.62. For the same compound, the “OD Value (x ± s)” value ([2]; HepG2, MTT OD 570 nm, 5 ug/ml, 3 d, solvent not given) was 1.16 ± 0.38, the “OD Value (x ± s)” value ([2]; HepG2, MTT OD 570 nm, 10 ug/ml, 3 d, solvent not given) was 0.84 ± 0.31 and the “OD Value (x ± s)” value [2, 9] was 1.60 ± 0.19. For the same compound, the “Inhibition Rate” value [2, 9] was 0.07, the “OD Value (x ± s)” value [2, 10] was 1.14 ± 0.09 and the “Inhibition Rate” value [2, 10] was 0.32. For the same compound, the “OD Value (x ± s)” value [2, 11] was 0.81 ± 0.12, the “Inhibition Rate” value [2, 11] was 0.34 and the “OD Value (x ± s)” value [2, 12] was 0.49 ± 0.32. The “Inhibition Rate” value [2, 12] was 0.63, the “Inhibition Rate” value ([2]; HepG2, MTT, 1 ug/ml, 3 d, solvent not given) was 0.18 and the “Inhibition Rate” value ([2]; HepG2, MTT, 5 ug/ml, 3 d, solvent not given) was 0.31. For the same compound, the “Inhibition Rate” value ([2]; HepG2, MTT, 10 ug/ml, 3 d, solvent not given) was 0.50, the “OD Value (x ± s)” value [2, 13] was 1.125 ± 0.146 and the “Inhibition Rate” value [2, 13] was 0.480*. For the same compound, the CEA [3] was 3.5 µg/L, the AFP [4] was 15.6 µg/L and the γ-GT [5] was 42.3 ± 2.0 U/L. The “Apoptosis Rate (%)” value [6] was 15.7* %, the “G0-G1 (%)” value [6] was 57.5% and the “G2-M (%)” value [6] was 2.61%. The “S %” value [6] was 25.4%, the G1 % [7] was 75.47% and the G2 % [7] was 5.52%. The S % [7] was 19.01%, the G1 % [8] was 32.2% and the G2 % [8] was 10.9%. For the same compound, the S % [8] was 56.8%.
